Entries after “also recorded” stand apart in the source; their conditions may differ. Like-named read-outs stand apart in the source and are kept apart here.
What was measured:
MOLM14 cells = experiment: alamarBlue cell viability assay of MOLM14 cells; format: cell-based; conditions: Homo sapiens, MOLM-14
Experimental: In vitro evaluations. All 36 PROTACs are evaluated in the relevant kinase assays, and those with Ki values >10-fold weaker than the parent drug are not advanced further. […] Next, the IC50s of lead indirect MCL-1 PROTACs are determined by alamarBlue cell viability assays of four human AML cell lines.
Both MOLM14 and MV4;11 AML cell lines are relatively sensitive to VEN in vitro; harbor a FLT3-ITD mutation plus an MLL rearrangement, two relatively common poor-prognosis AML mutations (both cells lines also contain additional mutations); and are dependent on MCL-1 and BCL-2, and express relatively high levels of both. In addition, both MOLM14 and MV4;11 are sensitive to CDK9 inhibitors, PI3K/mTOR inhibitors and MEK inhibitors. […] Three repeats of each IC50 determination assay are performed for each compound against each of these four AML cell lines. Multiple compounds are tested against all four AML cell lines at once, using alamarBlue microplate assays previously described. Specifically, cell lines are treated with vehicle (negative control), PROTAC alone, parent (non-PROTAC) drug alone, VEN alone, the combination of parent drug+VEN, and the combination of PROTAC+VEN, each at multiple concentrations, and IC50s in the AML cell lines determined. […] Western blotting is conducted after treatment of cells with the active PROTACs to determine if dose-dependent reduction of MCL-1 and CDK9 or PI3K/mTOR or MEK proteins is observed.
Cell viability of MOLM14 cells was measured in presence of test compounds via alamarBlue assay. This is a colorimetric assay that uses resazurin, a reduction-oxidation indicator. After incubation, resazurin is added to the test wells. The reduced form of resazurin is resorufin, which is pink and highly fluorescent. This can be measured through absorbance or fluorescence and is proportional to the amount of living cells.

CDK9 = CDK9 (Homo sapiens (Human), UniProt P50750); experiment: CDK9 activity assay (Nanosyn microfluidics mobility shift platform); format: biochemical
Chain of CDK9 (P50750 whole entry): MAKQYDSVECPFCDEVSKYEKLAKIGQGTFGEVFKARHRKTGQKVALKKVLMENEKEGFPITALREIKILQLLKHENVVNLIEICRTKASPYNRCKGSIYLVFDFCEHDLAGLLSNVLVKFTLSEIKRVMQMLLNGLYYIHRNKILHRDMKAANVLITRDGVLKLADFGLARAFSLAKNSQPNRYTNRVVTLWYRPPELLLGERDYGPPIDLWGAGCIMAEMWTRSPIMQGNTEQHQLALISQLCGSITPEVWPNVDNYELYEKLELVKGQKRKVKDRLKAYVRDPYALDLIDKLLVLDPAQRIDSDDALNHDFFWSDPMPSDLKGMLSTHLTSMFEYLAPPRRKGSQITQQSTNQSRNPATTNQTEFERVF
Chain of CDK9 (O60563 whole entry partner): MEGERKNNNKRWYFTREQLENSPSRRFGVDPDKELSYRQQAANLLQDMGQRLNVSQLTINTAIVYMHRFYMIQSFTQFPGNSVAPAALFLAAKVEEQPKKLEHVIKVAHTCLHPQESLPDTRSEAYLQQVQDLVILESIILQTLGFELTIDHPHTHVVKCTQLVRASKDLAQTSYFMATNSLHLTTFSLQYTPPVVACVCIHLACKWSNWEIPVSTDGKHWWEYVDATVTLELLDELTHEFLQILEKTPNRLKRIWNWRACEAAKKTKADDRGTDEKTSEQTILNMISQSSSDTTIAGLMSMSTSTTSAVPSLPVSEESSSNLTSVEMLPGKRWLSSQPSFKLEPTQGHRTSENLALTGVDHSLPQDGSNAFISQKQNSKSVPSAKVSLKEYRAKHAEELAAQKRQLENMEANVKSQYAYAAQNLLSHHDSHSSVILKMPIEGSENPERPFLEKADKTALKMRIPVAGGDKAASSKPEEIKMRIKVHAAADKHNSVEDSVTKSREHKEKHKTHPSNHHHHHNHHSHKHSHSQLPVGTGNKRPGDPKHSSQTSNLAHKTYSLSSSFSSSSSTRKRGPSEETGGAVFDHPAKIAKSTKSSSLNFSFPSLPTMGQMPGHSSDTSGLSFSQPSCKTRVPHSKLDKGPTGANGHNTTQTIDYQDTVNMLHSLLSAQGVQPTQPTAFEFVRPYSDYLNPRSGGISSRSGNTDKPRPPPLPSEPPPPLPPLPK
Experimental: CDK9 activity assays were performed by Nanosyn using a microfluidics mobility shift platform. In this assay, a fluorescently labeled substrate is incubated with the enzyme in the presence of test compounds. Samples are run through microfluidic chips, separating them based on differences in charge; this separates the more positive substrate from the more negative product. Enzyme activity is measured through comparison of the fluorescence from substrate and product peaks.

[1] = test system: Luc-labelled MOLM14 AML cells; experiment: Luc-labelled MOLM14 AML xenograft in NRG mice, venetoclax monotherapy or combinations; format: in vivo, mouse; conditions: MOLM14 AML-bearing NRG mice; for AML burden (fold-change total body luminescence vs d0): two 5 d treatment cycles (d1-5, d21-25), imaging d7/d14/d21, vs vehicle
Experimental: Next, these two compounds are tested at their MTD(s) in a 5 d schedule that utilized to evaluate VEN-based combinations against a luciferase (Luc)-labelled MOLM14 human AML cell line xenograft model. NRG mice are infused with Luc-labelled MOLM14 AML cells on day -10. After Xenogen quantification of baseline total body luminescence on d0, mice are placed into experimental groups balanced for AML burden. Each experiment to evaluate the two selected indirect MCL-1 PROTACs in vivo involves 10 groups of 5 MOLM14 AML-bearing mice treated with: (1) vehicle, (2-3) lead PROTACs, (4-5) corresponding parent drugs, (6) VEN, (7-8) corresponding parent drugs+VEN and (9-10) lead PROTACs+VEN. […] and VEN are administered at the same molar concentration as the novel PROTACs; additional control groups are needed if the MTDs of the two PROTACs differ. MOLM14 AML-bearing NRG mice are dosed daily PO on dl-5 and d21-25, assessed for AML burden by Xenogen imaging on d7, d14, and d21, and monitored until clinical signs dictate need for euthanasia (projected average 10 weeks). Primary response endpoints are AML response quantitation (fold-change in AML burden on d7/14/21 vs d0 for each mouse) via imaging. Comparisons of quantitative imaging results are confirmed by Kaplan-Meier survival analyses. In addition, the two selected PROTACs are similarly tested against a Luc-labelled MV4;11 cell line xenograft model. […]
Thus, the proposed sample size (5 mice/group) is expected to provide sufficient power for statistical analyses (at p<0.05 level; α=0.05, β=0.1), which is estimated with the standard deviation of AML burden over time monitored and the expected drug efficacy differences. […] AML burden is quantified using log transformed ratio of luminescence at d7/14/21 vs d0 for each mouse (fold-change); groups are compared using the appropriate parametric (ANOVA; t-test, etc) or non-parametric alternative as necessary (Wilcoxon rank sum, Kruskal-Wallis). […]
Two of the parent drug candidates are synthesized but the syntheses are published and short. […] The indirect MCL-1 PROTAC candidates are evaluated in the kinase assays as they are synthesized. […] On d0, after Xenogen quantification of baseline total body luminescence (AML burden), groups of 5 AML-bearing mice were treated on days 1-5, per a previously established MTD POx5d schedule, with VEN (150 mg/kg/d POx5), as monotherapy or co-administered with SOR (30 mg/kg/d POx5), ART (50 mg/kg/d POx5), and/or ASP (2001U/kg IP single dose). […] On d7, d14 and d21, each mouse was Xenogen imaged for total body luminescence, fold-change AML burden from d0 was calculated for each mouse, and mean (+/−SD) fold-change for each experimental group plotted. […]

[2] = test system: MOLM14 MCL1 OE cloned cell lines; experiment: 48 h alamarBlue cell viability assay of MOLM14 MCL1 OE cloned cell lines; format: cell-based, human; conditions: MOLM14 MCL1 OE cloned cell lines vs control cell lines
From the text: Method: OLM14 AML cell were lentivirally transduced to overexpress MCL1. […] MOLM14 AML cells were transduced with lentiviral expression vector (LV) pWCC43 backbone containing EF1a—driven GFP and Ubiquitin (Ub)-driven MCL1, or control empty LV without MCL1, or control LV containing Luc in place of MCL1, and then single-cell subcloned.

[3] = MOLM14, 48 hr, read-out: Cell Viability (MOLM14 IC50-nM) 48 hr
[4] = MOLM14, 72 hr, read-out: Cell Viability (MOLM14 IC50-nM) 72 hr

Molecule	IC50 (MOLM14 cells; [3])	IC50 (MOLM14 cells; [4])	IC50 (CDK9)	AML burden (fold-change total body luminescence vs d0) [1]	Sensitivity of MCL-1 overexpressing MOLM14 clones compared to control cell lines [2]	Kaplan-Meier survival ([1]; two 5 d treatment cycles, survival to d84, vs vehicle or monotherapy)
O=C(NC1CCNCC1)c1n[nH]cc1NC(=O)c1c(Cl)cccc1Cl [AMC-3-098, N-(4-Piperidinyl)-4-(2,6-dichlorobenzoylamino)-1H-pyrazole-3-carboxamide, reference compound]	178 nM	460 nM				
O=C(CNC(=O)COc1cccc2c1C(=O)N(C1CCC(=O)NC1=O)C2=O)NCCCCCCC(=O)N1CCC(NC(=O)c2n[nH]cc2NC(=O)c2c(Cl)cccc2Cl)CC1 (centres unmarked) [SF-8-141]			4.49 nM			
O=C(COc1cccc2c1C(=O)N(C1CCC(=O)NC1=O)C2=O)NCCC(=O)N1CCC(NC(=O)c2n[nH]cc2NC(=O)c2c(Cl)cccc2Cl)CC1 (centres unmarked) [AMC-3-104]			2.82 nM			
CNC(=O)c1cc(Oc2ccc(NC(=O)Nc3ccc(Cl)c(C(F)(F)F)c3)cc2)ccn1 [SOR, Sorafenib]				reduced AML burden only moderately; also recorded: significant difference in AML burden only at d7 and d14		
CC(C)(C)OC(=O)N1CCC(NC(=O)c2n[nH]cc2NC(=O)c2c(Cl)cccc2Cl)CC1 [AMC-3-095]	1680 nM	2010 nM	11.3 nM			
O=C1CCC(N2C(=O)c3cccc(OCC(=O)N4CCC(NC(=O)CN5CCC(NC(=O)c6n[nH]cc6NC(=O)c6c(Cl)cccc6Cl)CC5)CC4)c3C2=O)C(=O)N1 (centres unmarked) [AMC-3-106]	6070 nM	8170 nM	3.04 nM			
CC(C)(C)OC(=O)CN1CCC(NC(=O)c2n[nH]cc2NC(=O)c2c(Cl)cccc2Cl)CC1 [AMC-3-086]	1560 nM	1590 nM	11 nM			
PEGylated L-asparaginase				minimal activity		
O=C(COc1cccc2c1C(=O)N(C1CCC(=O)NC1=O)C2=O)NCCCCCCC(=O)N1CCC(NC(=O)c2n[nH]cc2NC(=O)c2c(Cl)cccc2Cl)CC1 (centres unmarked) [CG-3-071]	1710 nM	1910 nM	2.85 nM			
O=C(COc1cccc2c1C(=O)N(C1CCC(=O)NC1=O)C2=O)NCCOCCOCCNC(=O)CN1CCC(NC(=O)c2n[nH]cc2NC(=O)c2c(Cl)cccc2Cl)CC1 (centres unmarked) [CG-3-067]	4320 nM	7150 nM	3.89 nM			
O=C1CCC(N2C(=O)c3cccc(OCC(=O)N4CCC(C(=O)N5CCC(NC(=O)c6n[nH]cc6NC(=O)c6c(Cl)cccc6Cl)CC5)CC4)c3C2=O)C(=O)N1 (centres unmarked) [SF-8-140]	3000 nM	1820 nM	1.66 nM			
Cc1c(-c2c(-c3ccc(F)o3)sc3ncnc(O[C@H](Cc4ccccc4OCc4ccnn4CC(F)(F)F)C(=O)O)c23)ccc(OCCN2CCN(C)CC2)c1Cl [S63845]					reduced sensitivity	
CC1(C)CCC(CN2CCN(c3ccc(C(=O)NS(=O)(=O)c4ccc(NCC5CCOCC5)c([N+](=O)[O-])c4)c(Oc4cnc5[nH]ccc5c4)c3)CC2)=C(c2ccc(Cl)cc2)C1 [VEN, venetoclax]				no detectable effect; also recorded: minimal activity	more resistant	no detectable effect
O=C(COc1cccc2c1C(=O)N(C1CCC(=O)NC1=O)C2=O)NCCOCCNC(=O)CN1CCC(NC(=O)c2n[nH]cc2NC(=O)c2c(Cl)cccc2Cl)CC1 (centres unmarked) [CG-3-066]	1970 nM	1690 nM	3.32 nM			
O=C(COc1cccc2c1C(=O)N(C1CCC(=O)NC1=O)C2=O)NCCNC(=O)CN1CCC(NC(=O)c2n[nH]cc2NC(=O)c2c(Cl)cccc2Cl)CC1 (centres unmarked) [AMC-3-097]			3.96 nM			

Reference: patent US20240293557A1, “PROTEOLYSIS TARGETING CHIMERAS AND METHODS OF USE THEREOF” (University of Maryland, Baltimore, priority 2021, published 2024)
